Results as given in ChEMBL document CHEMBL1201862, “PubChem BioAssay data set” (2004).
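In this assay, cells in 96-well plates receive the compound at five concentrations for 48 hours. Endpoints are linearly interpolated between the surrounding concentrations. GI50 = concentration required for 50% inhibition of growth.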 Active and inactive are the calls of the source. Rule as the data show it: active = GI50 up to about 1.1 µM and inactive = higher.

Columns and labels:
Assay in all cases: growth of human tumour cells (NCI), 48 h
786-0 = system: 786-0
A549 = system: A549
ACHN = system: ACHN
CCRF-CEM = system: CCRF-CEM
COLO 205 = system: COLO 205
DLD-1 = system: DLD-1
DMS-114 = system: DMS-114
DMS-273 = system: DMS-273
EKVX = system: EKVX
HCC 2998 = system: HCC 2998
HCT-116 = system: HCT-116
HL-60 = system: HL-60
HOP-18 = system: HOP-18
HOP-62 = system: HOP-62
HOP-92 = system: HOP-92
HT-29 = system: HT-29
IGROV-1 = system: IGROV-1
K562 = system: K562
KM-20L2 = system: KM-20L2
KM12 = system: KM12
LOX IMVI = system: LOX IMVI
LXFL 529 = system: LXFL 529
M14 = system: M14
M19-MEL = system: M19-MEL
MOLT-4 = system: MOLT-4
Malme-3M = system: Malme-3M
NCI-H226 = system: NCI-H226
NCI-H23 = system: NCI-H23
NCI-H460 = system: NCI-H460
NCI-H522 = system: NCI-H522
OVCAR-3 = system: OVCAR-3
OVCAR-8 = system: OVCAR-8
RPMI-8226 = system: RPMI-8226
RXF 393 = system: RXF 393
SF-268 = system: SF-268
SF-295 = system: SF-295
SF-539 = system: SF-539
SK-MEL-28 = system: SK-MEL-28
SK-MEL-2 = system: SK-MEL-2
SK-OV-3 = system: SK-OV-3
SN12C = system: SN12C
SNB-19 = system: SNB-19
SNB-75 = system: SNB-75
SNB-78 = system: SNB-78
SR = system: SR
SW-620 = system: SW-620
TK-10 = system: TK-10
U-251 = system: U-251
UACC-257 = system: UACC-257
UACC-62 = system: UACC-62
UO-31 = system: UO-31
XF498 = system: XF498
CAKI-1 = system: CAKI-1
HCT-15 = system: HCT-15
OVCAR-4 = system: OVCAR-4
OVCAR-5 = system: OVCAR-5
SK-MEL-5 = system: SK-MEL-5

With `CC(=O)OC1CC2OC(Cc3ccccc32)O1` (centres undefined) the GI50 (786-0) was > 100 µM (inactive), the GI50 (A549) was > 100 µM (inactive) and the GI50 (ACHN) was > 100 µM (inactive). For the same compound, the GI50 (CCRF-CEM) was 56.1 µM (inactive), the GI50 (COLO 205) was > 100 µM (inactive) and the GI50 (DLD-1) was 64.1 µM (inactive). For the same compound, the GI50 (DMS-114) was > 100 µM (inactive), the GI50 (DMS-273) was > 100 µM (inactive) and the GI50 (EKVX) was > 100 µM (inactive). For the same compound, the GI50 (HCC 2998) was > 100 µM (inactive), the GI50 (HCT-116) was > 100 µM (inactive) and the GI50 (HL-60) was > 100 µM (inactive). The GI50 (HOP-18) was 32.8 µM (inactive), the GI50 (HOP-62) was > 100 µM (inactive) and the GI50 (HOP-92) was 34 µM (inactive). The GI50 (HT-29) was > 100 µM (inactive), the GI50 (IGROV-1) was > 100 µM (inactive) and the GI50 (K562) was > 100 µM (inactive). For the same compound, the GI50 (KM-20L2) was > 100 µM (inactive), the GI50 (KM12) was > 100 µM (inactive) and the GI50 (LOX IMVI) was > 100 µM (inactive). The GI50 (LXFL 529) was > 100 µM (inactive), the GI50 (M14) was 79.1 µM (inactive) and the GI50 (M19-MEL) was 60.4 µM (inactive). For the same compound, the GI50 (MOLT-4) was 48.9 µM (inactive), the GI50 (Malme-3M) was 27.6 µM (inactive) and the GI50 (NCI-H226) was 36.8 µM (inactive). For the same compound, the GI50 (NCI-H23) was > 100 µM (inactive), the GI50 (NCI-H460) was > 100 µM (inactive) and the GI50 (NCI-H522) was > 100 µM (inactive). The GI50 (OVCAR-3) was > 100 µM (inactive), the GI50 (OVCAR-8) was > 100 µM (inactive) and the GI50 (RPMI-8226) was > 100 µM (inactive). For the same compound, the GI50 (RXF 393) was > 100 µM (inactive), the GI50 (SF-268) was > 100 µM (inactive) and the GI50 (SF-295) was 65.3 µM (inactive). For the same compound, the GI50 (SF-539) was 29.9 µM (inactive), the GI50 (SK-MEL-28) was > 100 µM (inactive) and the GI50 (SK-MEL-2) was > 100 µM (inactive). The GI50 (SK-OV-3) was > 100 µM (inactive), the GI50 (SN12C) was 64.1 µM (inactive) and the GI50 (SNB-19) was > 100 µM (inactive). For the same compound, the GI50 (SNB-75) was 65 µM (inactive), the GI50 (SNB-78) was > 100 µM (inactive) and the GI50 (SR) was > 100 µM (inactive). The GI50 (SW-620) was > 100 µM (inactive), the GI50 (TK-10) was > 100 µM (inactive) and the GI50 (U-251) was 52.1 µM (inactive). The GI50 (UACC-257) was > 100 µM (inactive), the GI50 (UACC-62) was > 100 µM (inactive) and the GI50 (UO-31) was > 100 µM (inactive). The GI50 (XF498) was > 100 µM (inactive).

With `CCOc1ccc(/C(Cl)=C(\C=O)c2ccc(OC)c(OC)c2)cc1OCC` the GI50 (786-0) was 64.9 µM (inactive), the GI50 (A549) was 46.9 µM (inactive) and the GI50 (ACHN) was 37.1 µM (inactive). For the same compound, the GI50 (CAKI-1) was > 100 µM (inactive), the GI50 (CCRF-CEM) was 12.7 µM (inactive) and the GI50 (COLO 205) was 61.5 µM (inactive). For the same compound, the GI50 (DLD-1) was 68.7 µM (inactive), the GI50 (DMS-114) was 11 µM (inactive) and the GI50 (DMS-273) was 45.8 µM (inactive). For the same compound, the GI50 (EKVX) was 65.2 µM (inactive), the GI50 (HCC 2998) was 30 µM (inactive) and the GI50 (HCT-116) was 33.8 µM (inactive). For the same compound, the GI50 (HCT-15) was 28.3 µM, the GI50 (HL-60) was 21.7 µM (inactive) and the GI50 (HOP-18) was > 100 µM (inactive). For the same compound, the GI50 (HOP-62) was 30.1 µM (inactive), the GI50 (HOP-92) was 58.2 µM (inactive) and the GI50 (HT-29) was 41.1 µM (inactive). The GI50 (IGROV-1) was > 100 µM (inactive), the GI50 (K562) was 23.5 µM (inactive) and the GI50 (KM-20L2) was > 100 µM (inactive). For the same compound, the GI50 (KM12) was 91.4 µM (inactive), the GI50 (LOX IMVI) was 64.1 µM (inactive) and the GI50 (LXFL 529) was 30.5 µM (inactive). The GI50 (M14) was > 100 µM (inactive), the GI50 (M19-MEL) was 33 µM (inactive) and the GI50 (MOLT-4) was 27.9 µM (inactive). For the same compound, the GI50 (Malme-3M) was 37.5 µM (inactive), the GI50 (NCI-H226) was 67.1 µM (inactive) and the GI50 (NCI-H23) was 23.3 µM (inactive). The GI50 (NCI-H460) was 83.4 µM (inactive), the GI50 (NCI-H522) was 18.2 µM (inactive) and the GI50 (OVCAR-3) was > 100 µM (inactive). The GI50 (OVCAR-4) was 38.7 µM (inactive), the GI50 (OVCAR-5) was > 100 µM (inactive) and the GI50 (OVCAR-8) was 46.8 µM (inactive). The GI50 (RPMI-8226) was 28.1 µM (inactive), the GI50 (RXF 393) was 31.4 µM (inactive) and the GI50 (SF-268) was 63.8 µM (inactive). For the same compound, the GI50 (SF-295) was 72.6 µM (inactive), the GI50 (SF-539) was 48.9 µM (inactive) and the GI50 (SK-MEL-28) was > 100 µM (inactive). For the same compound, the GI50 (SK-MEL-2) was > 100 µM (inactive), the GI50 (SK-MEL-5) was 22.5 µM (inactive) and the GI50 (SK-OV-3) was > 100 µM (inactive). For the same compound, the GI50 (SN12C) was 44.6 µM (inactive), the GI50 (SNB-19) was 55.3 µM (inactive) and the GI50 (SNB-75) was 29.9 µM (inactive). For the same compound, the GI50 (SNB-78) was 36.8 µM (inactive), the GI50 (SR) was 20.3 µM (inactive) and the GI50 (SW-620) was 83.9 µM (inactive). For the same compound, the GI50 (TK-10) was 80.9 µM (inactive), the GI50 (U-251) was 32.9 µM (inactive) and the GI50 (UACC-257) was 32.3 µM (inactive). The GI50 (UACC-62) was 33 µM (inactive), the GI50 (UO-31) was 53 µM (inactive) and the GI50 (XF498) was 53.2 µM (inactive).
